Results reported in ChEMBL document CHEMBL1159230, “Anti-AIDS agents, 18. Sodium and potassium salts of caffeic acid tetramers from Arnebia euchroma as anti-HIV agents” (J Nat Prod, 1995).
Values after ≈ are worked out from the molar mass of the structure shown.

Experiments:
[1] = Therapeutic index, ratio of IC50 for human H9 cells to EC50 for HIV1 3B; assay type: cell-based; conditions: for Ratio IC50/EC50: h9; for selectivity ratio: H9 cells, read-out: Ratio IC50/EC50
[2] = test system: Human immunodeficiency virus 1; experiment: Antiviral activity against HIV1 3B infected in human H9 cells after 4 days by p24 antigen ELISA assay; assay type: functional, organism-based; conditions: Human immunodeficiency virus 1, 3B, H9, 96 h
H9 = experiment: Cytotoxicity against human H9 cells; assay type: cell-based

SMILES	EC50 [2] [µg/mL]	Ratio IC50/EC50 [1]	IC50 (H9) [µg/mL]	selectivity ratio [1]
O=C(O[C@H](Cc1ccc(O)c(O)c1)C(=O)O)C1=Cc2cc(O)c(O)cc2[C@H](c2ccc(O)c(O)c2)[C@H]1C(=O)O[C@H](Cc1ccc(O)c(O)c1)C(=O)O	13 (≈ 18.1 µM)	3.5	45 (≈ 62.6 µM)	
O=C(O[C@H](Cc1ccc(O)c(O)c1)C(=O)[O-])C1=Cc2cc(O)c(O)cc2[C@H](c2ccc(O)c(O)c2)[C@H]1C(=O)O[C@H](Cc1ccc(O)c(O)c1)C(=O)O.[K+]	1.5	33.3	50	
O=C(O[C@H](Cc1ccc(O)c(O)c1)C(=O)O)C1=Cc2cc(O)c(O)cc2[C@@H](c2ccc(O)c(O)c2)C1C(=O)O[C@H](Cc1ccc(O)c(O)c1)C(=O)O (stereo partly drawn)	15 (≈ 20.9 µM)	3.3	50 (≈ 69.6 µM)	
O=c1ccn([C@@H]2O[C@H](CO)[C@@H](O)[C@H]2O)c(=O)[nH]1 [URIDINE]	10 (≈ 40.9 µM)			> 10

More lines, main results first:

EC50 [2] [µg/mL]	SMILES	Ratio IC50/EC50 [1]	IC50 (H9) [µg/mL]	selectivity ratio [1]
16	O=C(O[C@H](Cc1ccc(O)c(O)c1)C(=O)[O-])C1=Cc2cc(O)c(O)cc2[C@@H](c2ccc(O)c(O)c2)C1C(=O)O[C@H](Cc1ccc(O)c(O)c1)C(=O)[O-].[K+].[K+] (stereo partly drawn)	3.1	50	
30	O=C(O[C@H](Cc1ccc(O)c(O)c1)C(=O)[O-])C1=Cc2cc(O)c(O[C@@H]3O[C@H](CO)[C@@H](O)[C@H](O)[C@H]3O)cc2[C@@H](c2ccc(O)c(O)c2)C1C(=O)O[C@H](Cc1ccc(O)c(O)c1)C(=O)[O-].[K+].[Na+] (stereo partly drawn)		60	2
2.8	O=C(O[C@H](Cc1ccc(O)c(O)c1)C(=O)[O-])C1=Cc2cc(O)c(O)cc2[C@@H](c2ccc(O)c(O)c2)C1C(=O)O[C@H](Cc1ccc(O)c(O)c1)C(=O)[O-].[Na+].[Na+] (stereo partly drawn)	19.6	55	
4	O=C(O[C@H](Cc1ccc(O)c(O)c1)C(=O)[O-])C1=Cc2cc(O)c(O)cc2[C@@H](c2ccc(O)c(O)c2)C1C(=O)O[C@H](Cc1ccc(O)c(O)c1)C(=O)O.[K+] (stereo partly drawn)	12.5	50	
